The values that follow are results of earlier work, collected in patent US5449612A, “Process for identifying candida by means of chromogenic substances” (Serbio, priority 1990, dated 1995).

The subject of one data set is β-D-glucosidase. The conditions noted are these: Casal et al. 1983; Polachek et al. 1987; cited from earlier work.
Data set [1] concerns C. albicans, C. guillermondii, C. intermedia, C. lipolytica, C. lusitanica, C. parapsilosis, C. rugosa and C. zeylanoides. The conditions noted are these: U.S. Pat. No. 4,874,695, Table IV; cited from earlier work.
Data set [2] deals with N-acetyl-β-D-glucosaminidase. The conditions noted are these: Casal et al. 1983; Polachek et al. 1987; cited from earlier work.

On to `OC[C@H]1O[C@@H](Oc2ccc3cc(Br)ccc3c2)[C@H](O)[C@@H](O)[C@@H]1O` [(6-bromo-β-naphthyl)-β-D-glucopyranoside], for which the “reaction with isolated strains” value with β-D-glucosidase was “positive reaction”. As to `O=C(Nc1ccc([N+](=O)[O-])cc1)[C@@H]1CCCN1` [H-L-Pro-pNA], the “sensitivity towards strains of Candida” value in data set [1] is listed as “sensitive towards several strains of Candida”. Take `CC(=O)N[C@H]1[C@H](Oc2ccc3ccccc3c2)O[C@H](CO)[C@@H](O)[C@@H]1O` [β-naphthyl-N-acetyl-β-D-glucosaminide]: the “reaction with isolated strains” value in data set [2] is “positive reaction”.
